# Test results taken from PubChem BioAssay AID1421 (Emory University Molecular Libraries Screening Center, 2008).
# Target: Prostaglandin E2 receptor EP2 subtype (Homo sapiens) (UniProt P43116)
# Test: compounds shifting PGE2 potency at EP2 – cell-based, human EP2, PGE2 EC50 shift, dose response (AID 1421)
# Conditions: EP2-expressing cells, PGE2 EC50 shift by compound; measured here: PGE2 EC50 at 6.7 uM compound
# Sequence of Prostaglandin E2 receptor EP2 subtype (Homo sapiens) (P43116 whole entry, looked up): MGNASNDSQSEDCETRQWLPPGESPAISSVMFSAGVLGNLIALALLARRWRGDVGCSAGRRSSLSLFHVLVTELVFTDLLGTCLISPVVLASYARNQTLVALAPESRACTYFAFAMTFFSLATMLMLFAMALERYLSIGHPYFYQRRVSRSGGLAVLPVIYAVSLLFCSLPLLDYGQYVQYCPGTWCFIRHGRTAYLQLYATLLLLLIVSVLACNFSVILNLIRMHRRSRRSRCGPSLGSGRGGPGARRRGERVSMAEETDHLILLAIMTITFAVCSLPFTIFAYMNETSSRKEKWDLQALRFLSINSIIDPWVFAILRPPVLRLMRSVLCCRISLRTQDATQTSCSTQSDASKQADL
row,SMILES,PGE2 EC50 with compound
1,CC1CCc2c(sc(N)c2C(=O)OC(C)C)C1 (stereo not drawn),0.91 nM
2,Cc1ccc(C(=O)OCC(=O)Nc2ccccc2Sc2ccccc2)cc1C,0.85 nM
3,Cc1nc2ccccc2nc1SCC(=O)N1CCC(C)CC1,2.77 nM
4,CC(C)OC(=O)c1c(NC(=O)c2ccco2)sc2c1CCCCC2,0.74 nM
5,CCOC(=O)C1CCCN(C(=O)c2ccc(C)cc2O)C1 (stereo not drawn),1.44 nM
6,Cc1cccnc1N(C(=O)Nc1ccccc1)C1=NCC(C)(C)S1,0.57 nM
7,Cc1occc1-c1nnc(SCC(=O)Nc2ccccc2N2CCCCC2)n1C,2.71 nM
8,CCOC(=O)c1cc(CC)sc1NC(=O)c1ccc2c(c1)OCCO2,0.97 nM
9,Cc1ccc2c(c1)N(S(=O)(=O)c1ccc(F)cc1)C(C(C)(C)C)CO2 (stereo not drawn),1.11 nM
10,CCOc1ccccc1NC1c2ccccc2C(=O)N1c1ccc(C)cn1 (stereo not drawn),0.89 nM
11,O=c1[nH]c2ccc(Cl)cc2c(-c2ccccc2)c1N1CCN(c2ccccn2)CC1,1.64 nM
12,O=C(NCCC1=CCCCC1)c1cccc2c1C(=O)N(C1CCCCC1)C2,1.18 nM
13,CC/C(=C\C1CCCCC1)C(NP(=O)(c1ccccc1)c1ccccc1)c1ccccc1 (stereo not drawn),1.01 nM
14,CCOC(=O)c1c(NC(=O)CN2CCN(C(=O)c3ccco3)CC2)sc2c1CCCC2,0.85 nM
15,Cc1ccc(/C=N/N(Cc2ccccc2)c2ccccc2)o1,0.92 nM
16,C=CCn1c(CCc2cc(C(C)(C)C)c(O)c(C(C)(C)C)c2)n[nH]c1=S,1.14 nM
17,COc1ccc(C2=Nn3c(nnc3C3CCCCC3)SC2)cc1OC,1.58 nM
18,O=C(Nc1ccccc1N1CCCCC1)c1ccccc1F,0.61 nM
19,CCOC(=O)CC(=O)CSc1ncnc2c1oc1ccccc12,2.64 nM
20,FC(F)(F)c1cccc(/C=N/NC(=S)NC2CCCCC2)c1,0.42 nM

row,SMILES,PGE2 EC50 with compound
1,C/C(=C\c1ccc(C(=O)O)cc1)c1ccc2c(c1)C(C)(C)CCC2(C)C,0.79 nM
2,Cc1cc(C)n(CCOc2ccc(Cl)cc2Cl)n1,0.63 nM
3,CCOP(=O)(c1ccccc1)c1nc(-c2ccccc2C)oc1N1CCCCC1 (stereo not drawn),0.69 nM
4,Cc1cccc(-n2c(CCn3nc(C)c([N+](=O)[O-])c3C)n[nH]c2=S)c1,2.79 nM
5,COCCn1c(SC(C(=O)Nc2cc(C)ccc2OC)c2ccccc2)nnc1-c1ccc(Cl)cc1 (stereo not drawn),1.44 nM
6,CO/N=C/C(=N\Nc1ccccc1)C(=O)c1ccccc1,0.59 nM
7,CCOC(=O)c1c(NC(=O)CN(CC)CC)sc2c1CCN(C(=O)OCC)C2,1.34 nM
8,COc1ccc(N2CCN(c3nc4c(c(=O)n(C)c(=O)n4C)n3Cc3ccccc3)CC2)cc1,0.92 nM
9,CCn1c(-c2ccccc2)c(C(=O)CCl)c2ccccc21,1 nM
10,CCCCC(=O)C1CCN(Cc2ccccc2)CC1,0.89 nM
11,CC(C)Cc1nc(N2CCCCC2)c(C#N)c2c1CCC2,1.37 nM
12,O=C(NCc1ccco1)c1ccc(=O)[nH]n1,1.06 nM
13,CC(C)OC(=O)c1c(NC(=O)CCn2nnc3ccccc32)sc2c1CCCC2,1 nM
14,CC1CCN(c2ccccc2NC(=O)c2ccc(C#N)cc2F)CC1,0.93 nM
15,Cc1ccc(C(=O)c2c(NC(=O)c3ccncc3)sc3c2CCCC3)cc1,0.66 nM
16,CC(C)CCn1c(O)c(N=NC(=O)c2ccco2)c2ccccc21,1.03 nM
17,COc1c(O)ccc(/C=C(\C#N)c2nc3ccccc3[nH]2)c1[N+](=O)[O-],1.1 nM
18,COC(=O)c1cc(Br)c(=O)n(-c2nccs2)c1,2.71 nM
19,CCn1c2ccccc2c2nc3ccccc3nc21,1.55 nM
20,CC(=O)Nc1ccc(C2=NN(c3ccccc3)C(c3cccs3)C2)cc1 (stereo not drawn),0.65 nM

row,SMILES,PGE2 EC50 with compound
1,COC(=O)c1ccc(Oc2cc(C)nc(NCc3ccccc3)n2)cc1,0.34 nM
2,C=CCn1c(CNC(=O)c2cccs2)nnc1SCC(=O)c1ccc(Br)cc1,1.83 nM
3,COC(=O)c1c(NC(NC(=O)C(C)C)C(Cl)(Cl)Cl)sc2c1CCCC2 (stereo not drawn),1 nM
4,O=C(c1cc2sccc2n1Cc1ccccc1)N1CCCc2ccccc21,1.3 nM
5,COc1ccc(CCN(Cc2nc(-c3ccccc3)no2)Cc2nc(-c3ccccc3)no2)cc1OC,1.2 nM
6,O=C(COC(=O)c1ccc(S(=O)(=O)N2CCCC2)cc1)Nc1ccc(F)cc1F,1.73 nM
7,Cc1cc(SCC(=O)c2ccccc2)nc2ccccc12,1.09 nM
8,O=C(CSc1nnc(-c2cc3ccccc3cc2O)n1Cc1ccco1)c1ccc(F)cc1,1.35 nM
9,Oc1ccc(/C=N/N(Cc2ccccc2)c2ccccc2)cc1,0.76 nM
10,CCOC(=O)c1c(NC(=O)c2cccs2)sc(C)c1CC,1.51 nM
11,CC(C)c1nc(N2CCN(C(=O)c3ccccc3)CC2)c(C#N)c2c1COC(C)(C)C2,0.97 nM
12,CCOC(=O)C1CCN(c2c(C(=O)c3ccccc3)cnc3ccc(Cl)cc23)CC1,0.89 nM
13,Cc1cc(SCC(=O)Nc2cccnc2Cl)nc2ccccc12,0.87 nM
14,COc1cc2cc(Br)cc(Br)c2nc1C,2.62 nM
15,Cn1cc(C2=C(c3ccc(Cl)cc3Cl)C(=O)NC2=O)c2ccccc21,0.68 nM
16,Cc1ccc(-c2csc3ncnc(N4CCc5ccccc5C4)c23)cc1,0.93 nM
17,C=CCc1cc(C=O)cc(OCC)c1OCc1ccc(Cl)cc1,1.29 nM
18,CCCn1c(-c2cccs2)nc2c1c(=O)[nH]c(=O)n2Cc1ccccc1,2.78 nM
